Assay results taken from EP4678638A1, “NEW E3 UBIQUITIN LIGASE LIGAND, PROTEIN DEGRADATION AGENT AND USE THEREOF” (priority 2023, dated 2024).

Legend:
H2228 = experiment: CCK-8 proliferation, NCI-H2228 (H2228); type: cell-based; conditions: Homo sapiens, NCI-H2228; Table B6, compounds designed based on the ALK inhibitors; H2228 cells; read-out: Inhibitory activity (IC50, nM) on tumor cell proliferation, H2228
Method: The tumor cells used herein were cultured in a cell culture medium listed in table A1 at 37°C in an incubator with 5% CO2. Prior to experimentation, all cell lines used were correctly identified by STR profiling, and tested negative for mycoplasma contamination using a mycoplasma detection kit through routine screenings. Table A1. Tumor cells and cell culture medium used in the present disclosure
IC50 values of the compounds of the present disclosure (including the compounds in Table 1, and compounds of examples) were measured using the Meilun Cell Counting Kit-8 kit from Dalian Meilun Biotech Co., Ltd. Assay details are as follows: tumor cells were seeded in a 96-well plate at a density listed in Table A2. After 24h, 100 µL of the inoculated cells were treated with 0.5µL of the compounds of the present disclosure (including the compounds in Tables 1 and 2, and compounds of examples) at 10 different successively decreasing concentrations (starting at the highest concentration of 10µM; 5-fold serial dilutions). After the cells were treated with the compounds of the present disclosure for a period of time, the cell viability detection reagent was added to the culture medium for cell viability assessment according to the instructions provided with the CCK-8 kit. […] The growth inhibition of the compounds of the present disclosure on cells was plotted by Prism Graphpad software, and the IC50 values of the compounds of the present disclosure were calculated therefrom. […] Seeding protocol and treatment time for tumor cells

ALK = molecular target: T1, ALK (Homo sapiens, UniProt Q96SW2+Q9HC35+Q9UM73); experiment: Western blot degradation of ALK (H2228 Cell); type: cell-based; conditions: Table D5
T1 construct: evaluate the effects of the compounds of the present disclosure on the expression of target proteins in cells; endogenous in cells; host or cells: H2228
Method: Conventional Western blot assay was performed to evaluate the effects of the compounds of the present disclosure on the expression of target proteins in cells.
(1) Cell Seeding and Protein Harvesting: The selected cells were processed according to the cell seeding procedure and protein harvesting procedure in Table III-2. Table III-2 Cell Seeding and Protein Harvesting Procedures
(2) To the collected supernatant, 5X SDS sample loading buffer was added, followed by denaturation at 95°C for 5 minutes. The denatured samples were then separated by SDS-PAGE electrophoresis on a polyacrylamide gel. Proteins were transferred to a nitrocellulose membrane (0.45 µm NC membrane), blocked with blocking buffer at room temperature for 1 hour, and subjected to antibody incubation and development procedures according to the antibody manufacturer's instructions (Cell Signaling Technology).
Half-Maximal Degradation Concentration value (the drug concentration required for degrading proteins by 50%, abbreviated as DC50) reads method: comparing the grayscale values of Western blot bands from drug-treated samples with those from blank DMSO-treated controls, and identifying the drug concentration range at which the grayscale value is half that of the DMSO-treated control bands.
DC50 values can be calculated using ImageJ software to measure grayscale values of Western blot bands from drug-treated samples. The concentration-response curve is fitted to estimate the drug concentration corresponding to half the grayscale value.
Target protein remaining (%) refers to the percentage of target protein remaining in hPBMC cells after treatment with protein degrader compounds.
Calculation method for target protein remaining (%): Use ImageJ software to measure grayscale values of Western blot bands from drug (protein degrader)-treated samples. The grayscale value of drug-treated bands is divided by that of internal control protein bands, and the resulting quotient is normalized to obtain the relative percentage of remaining target protein after protein degrader treatment.
Target protein degradation rate (%) = 100% - target protein remaining (%).

SR = experiment: CCK-8 proliferation, SR; type: cell-based, Human; conditions: Homo sapiens; Table B6, compounds designed based on the ALK inhibitors; SR cells; read-out: Inhibitory activity (IC50, nM) on tumor cell proliferation, SR
Outline: (§1)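 Cells seeded, then after 24 h treated with 10 concentrations (top 10 µM, 5-fold serial dilution) for a line-specific time at 37°C, 5% CO2. Viability read by CCK-8; IC50 fitted from growth-inhibition curves.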

MCF7 = experiment: CCK-8 proliferation, MCF7 (MCF-7); type: cell-based; conditions: Homo sapiens, MCF7; Table B6, compounds designed based on the ALK inhibitors; MCF-7 cells; read-out: Inhibitory activity (IC50, nM) on tumor cell proliferation, MCF-7
Outline: as §1

H1975 = experiment: CCK-8 proliferation, NCI-H1975 (H1975); type: cell-based, Human; conditions: Homo sapiens, NCI-H1975; Table B6, compounds designed based on the ALK inhibitors; H1975 cells; read-out: Inhibitory activity (IC50, nM) on tumor cell proliferation, H1975
Outline: as §1

T1 sequence (Q9HC35+Q9UM73 fused): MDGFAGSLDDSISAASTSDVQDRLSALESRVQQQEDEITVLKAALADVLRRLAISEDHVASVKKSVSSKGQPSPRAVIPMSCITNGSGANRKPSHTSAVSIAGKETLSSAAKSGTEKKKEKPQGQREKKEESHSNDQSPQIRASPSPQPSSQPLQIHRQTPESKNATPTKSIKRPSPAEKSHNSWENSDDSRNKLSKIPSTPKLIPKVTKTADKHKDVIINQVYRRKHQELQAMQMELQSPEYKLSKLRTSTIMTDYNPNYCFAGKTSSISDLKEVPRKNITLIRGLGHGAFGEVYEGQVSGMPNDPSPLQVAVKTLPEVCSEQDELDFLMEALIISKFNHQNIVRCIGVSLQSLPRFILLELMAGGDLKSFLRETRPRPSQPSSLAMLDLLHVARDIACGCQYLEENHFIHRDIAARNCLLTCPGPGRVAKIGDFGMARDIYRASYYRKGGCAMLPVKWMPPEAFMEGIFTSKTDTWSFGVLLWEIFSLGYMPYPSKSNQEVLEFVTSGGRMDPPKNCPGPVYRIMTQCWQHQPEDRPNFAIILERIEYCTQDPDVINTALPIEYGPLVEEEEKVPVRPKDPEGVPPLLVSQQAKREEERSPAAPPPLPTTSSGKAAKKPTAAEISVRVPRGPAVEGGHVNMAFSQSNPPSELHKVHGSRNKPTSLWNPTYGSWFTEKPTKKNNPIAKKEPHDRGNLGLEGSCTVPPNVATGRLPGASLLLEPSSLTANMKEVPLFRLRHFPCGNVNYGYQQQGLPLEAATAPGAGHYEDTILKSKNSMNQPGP
T1 sequence (Q96SW2 whole entry): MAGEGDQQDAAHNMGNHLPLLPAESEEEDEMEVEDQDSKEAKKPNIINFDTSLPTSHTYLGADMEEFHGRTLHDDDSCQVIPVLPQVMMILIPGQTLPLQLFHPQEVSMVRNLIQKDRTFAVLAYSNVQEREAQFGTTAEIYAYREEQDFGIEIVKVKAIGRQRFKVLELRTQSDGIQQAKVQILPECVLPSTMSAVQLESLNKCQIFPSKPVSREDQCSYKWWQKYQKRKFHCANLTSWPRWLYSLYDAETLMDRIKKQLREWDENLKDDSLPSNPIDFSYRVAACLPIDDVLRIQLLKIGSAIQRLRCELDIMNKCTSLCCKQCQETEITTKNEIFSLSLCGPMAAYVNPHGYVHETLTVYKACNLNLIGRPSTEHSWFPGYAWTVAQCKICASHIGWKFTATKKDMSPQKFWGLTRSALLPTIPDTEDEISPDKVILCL
T1 sequence (Q16531 whole entry partner): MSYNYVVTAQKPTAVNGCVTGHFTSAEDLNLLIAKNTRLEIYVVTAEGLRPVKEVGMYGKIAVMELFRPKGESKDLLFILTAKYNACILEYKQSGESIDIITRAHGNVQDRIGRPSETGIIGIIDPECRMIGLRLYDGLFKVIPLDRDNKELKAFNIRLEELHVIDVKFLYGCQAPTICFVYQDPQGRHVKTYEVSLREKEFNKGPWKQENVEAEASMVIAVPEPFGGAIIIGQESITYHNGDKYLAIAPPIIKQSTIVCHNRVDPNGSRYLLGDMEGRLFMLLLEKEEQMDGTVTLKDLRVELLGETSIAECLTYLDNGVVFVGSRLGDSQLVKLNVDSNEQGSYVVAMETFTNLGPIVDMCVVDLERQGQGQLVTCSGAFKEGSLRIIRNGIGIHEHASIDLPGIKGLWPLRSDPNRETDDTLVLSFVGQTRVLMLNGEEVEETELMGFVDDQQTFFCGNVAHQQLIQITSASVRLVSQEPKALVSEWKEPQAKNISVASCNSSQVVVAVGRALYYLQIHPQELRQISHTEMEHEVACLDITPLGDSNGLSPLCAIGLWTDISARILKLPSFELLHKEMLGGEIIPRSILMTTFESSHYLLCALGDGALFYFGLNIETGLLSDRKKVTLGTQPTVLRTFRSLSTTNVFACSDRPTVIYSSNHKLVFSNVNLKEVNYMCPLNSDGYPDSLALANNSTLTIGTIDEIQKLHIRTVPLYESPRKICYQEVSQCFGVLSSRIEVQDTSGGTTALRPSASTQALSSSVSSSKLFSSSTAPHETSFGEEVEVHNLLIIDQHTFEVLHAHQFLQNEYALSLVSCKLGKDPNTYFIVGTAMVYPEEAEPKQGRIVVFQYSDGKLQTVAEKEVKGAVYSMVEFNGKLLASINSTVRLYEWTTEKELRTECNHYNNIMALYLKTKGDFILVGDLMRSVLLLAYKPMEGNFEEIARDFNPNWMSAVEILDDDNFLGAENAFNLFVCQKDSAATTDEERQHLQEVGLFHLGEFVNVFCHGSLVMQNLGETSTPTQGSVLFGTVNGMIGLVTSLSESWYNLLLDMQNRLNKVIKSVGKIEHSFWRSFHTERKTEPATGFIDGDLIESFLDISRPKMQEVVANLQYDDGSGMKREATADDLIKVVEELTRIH

SMILES | IC50 (H2228) [nM] | Degradation of substrate protein ALK (substrate protein remaining %) (ALK) | IC50 (SR) [nM] | IC50 (MCF7) [nM] | IC50 (H1975) [nM]
CCc1cc2c(cc1N1CCN(Cc3ccc(N4CCC(=O)NC4=O)nc3)CC1)C(C)(C)c1[nH]c3cc(C#N)ccc3c1C2=O [GT-07327, 8-(4-((6-(2,4-dioxotetrahydropyrimidin-1(2H)-yl)pyridin-3-yl)methyl)piperazin-1-yl)-9-ethyl-6,6-dimethyl-11-oxo-6,11-dihydro-5H-benzo[b]carbazole-3-carbonitrile] | 100 to 500 | A (A is defined as 0% ≤ substrate protein remaining % ≤ 80%) | 1 to 10 | 500 to 1000 | –
CCc1cc2c(cc1N1CCN(Cc3ccc(N4CCC(=O)NC4=O)cc3)CC1)C(C)(C)c1[nH]c3cc(C#N)ccc3c1C2=O [GT-07324, 8-(4-(4-(2,4-dioxotetrahydropyrimidin-1(2H)-yl)benzyl)piperazin-1-yl)-9-ethyl-6,6-dimethyl-11-oxo-6,11-dihydro-5H-benzo[b]carbazole-3-carbonitrile] | 100 to 500 | A (A is defined as 0% ≤ substrate protein remaining % ≤ 80%) | 10 to 50 | 500 to 1000 | –
COc1cc(N2CCC(N(C)Cc3ccnc(C4CCC(=O)NC4=O)c3)CC2)ccc1Nc1ncc(Cl)c(Nc2ccccc2P(C)(C)=O)n1 (centres unmarked) [GT-07697, 3-(4-(((1-(4-((5-chloro-4-((2-(dimethylphosphoryl)phenyl)amino)pyrimidin-2-yl)amino)-3-methoxyphenyl)piperidin-4-yl)(methyl)amino)methyl)pyridin-2-yl)piperidine-2,6-dione] | 100 to 500 | A (A is defined as 0% ≤ substrate protein remaining % ≤ 80%) | 10 to 50 | 500 to 1000 | –
COc1cc(N2CCN(Cc3ccc(N4CCC(=O)NC4=O)cc3F)CC2)ccc1Nc1ncc(Cl)c(Nc2ccccc2P(C)(C)=O)n1 [GT-07347, 1-(4-((4-(4-((5-chloro-4-((2-(dimethylphosphoryl)phenyl)amino)pyrimidin-2-yl)amino)-3-methoxyphenyl)piperazin-1-yl)methyl)-3-fluorophenyl)dihydropyrimidine-2,4(1H,3H)-dione] | 100 to 500 | A (A is defined as 0% ≤ substrate protein remaining % ≤ 80%) | 10 to 50 | – | 100 to 500
COc1cc(N2CCC(N3CCN(Cc4cc(C5CCC(=O)NC5=O)cnc4F)CC3)CC2)ccc1Nc1ncc(Cl)c(Nc2ccccc2P(C)(C)=O)n1 (centres unmarked) [GT-07611, 3-(5-((4-(1-(4-((5-chloro-4-((2-(dimethylphosphoryl)phenyl)amino)pyrimidin-2-yl)amino)-3-methoxyphenyl)piperidin-4-yl)piperazin-1-yl)methyl)-6-fluoropyridin-3-yl)piperidine-2,6-dione] | 10 to 50 | A (A is defined as 0% ≤ substrate protein remaining % ≤ 80%) | 1 to 10 | – | 500 to 1000
Cc1cc(Nc2ncc(Cl)c(Nc3ccccc3S(=O)(=O)C(C)C)n2)c(OC(C)C)cc1C1CCN(Cc2cccc(NC3CCC(=O)NC3=O)c2)CC1 (centres unmarked) [GT-07594, 3-((3-((4-(4-((5-chloro-4-((2-(isopropylsulfonyl)phenyl)amino)pyrimidin-2-yl)amino)-5-isopropoxy-2-methylphenyl)piperidin-1-yl)methyl)phenyl)amino)pip eridine-2,6-dione] | 100 to 500 | A (A is defined as 0% ≤ substrate protein remaining % ≤ 80%) | 50 to 100 | – | –
COc1cc(N2CCN(Cc3cccc(N4CCC(=O)NC4=O)c3)CC2)ccc1Nc1ncc(Cl)c(Nc2ccccc2P(C)(C)=O)n1 [GT-07348, 1-(3-((4-(4-((5-chloro-4-((2-(dimethylphosphoryl)phenyl)amino)pyrimidin-2-yl)amino)-3-methoxyphenyl)piperazin-1-yl)methyl)phenyl)dihydropyr imidine-2,4(1H,3H)-dione] | 100 to 500 | A (A is defined as 0% ≤ substrate protein remaining % ≤ 80%) | 10 to 50 | – | 500 to 1000
CCc1cc2c(cc1N1CCN(Cc3cccc(NC4CCC(=O)NC4=O)c3)CC1)C(C)(C)c1[nH]c3cc(C#N)ccc3c1C2=O (centres unmarked) [GT-07328, 8-(4-(3-((2,6-dioxopiperidin-3-yl)amino)benzyl)piperazin-1-yl)-9-ethyl-6,6-dimethyl-11-oxo-6,11-dihydro-5H-benzo[b]carbazole-3-carbonitrile] | 100 to 500 | A (A is defined as 0% ≤ substrate protein remaining % ≤ 80%) | 10 to 50 | – | –
Cc1cc(Nc2ncc(Cl)c(Nc3ccccc3S(=O)(=O)C(C)C)n2)c(OC(C)C)cc1C1CCN(Cc2ccc(N3CCC(=O)NC3=O)cc2)CC1 [GT-07592, 1-(4-((4-(4-((5-chloro-4-((2-(isopropylsulfonyl)phenyl)amino)pyrimidin-2-yl)amino)-5-isopropoxy-2-methylphenyl)piperidin-1-yl)methyl)phenyl)dihydropyr imidine-2,4(1H,3H)-dione] | 100 to 500 | A (A is defined as 0% ≤ substrate protein remaining % ≤ 80%) | 10 to 50 | 500 to 1000 | –
CCc1cc2c(cc1N1CCN(Cc3ccc(N4CCC(=O)NC4=O)cn3)CC1)C(C)(C)c1[nH]c3cc(C#N)ccc3c1C2=O [GT-07326, 8-(4-((5-(2,4-dioxotetrahydropyrimidin-1(2H)-yl)pyridin-2-yl)methyl)piperazin-1-yl)-9-ethyl-6,6-dimethyl-11-oxo-6,11-dihydro-5H-benzo[b]carbazole-3-carbonitrile] | 100 to 500 | A (A is defined as 0% ≤ substrate protein remaining % ≤ 80%) | 10 to 50 | – | –
CCc1cc2c(cc1N1CCN(Cc3cccc(N4CCC(=O)NC4=O)c3)CC1)C(C)(C)c1[nH]c3cc(C#N)ccc3c1C2=O [GT-07325, 8-(4-(3-(2,4-dioxotetrahydropyrimidin-1(2H)-yl)benzyl)piperazin-1-yl)-9-ethyl-6,6-dimethyl-11-oxo-6,11-dihydro-5H-benzo[b]carbazole-3-carbonitrile] | 100 to 500 | A (A is defined as 0% ≤ substrate protein remaining % ≤ 80%) | 10 to 50 | – | –
Cc1cc(Nc2ncc(Cl)c(Nc3ccccc3S(=O)(=O)C(C)C)n2)c(OC(C)C)cc1C1CCN(Cc2cc(N3CCC(=O)NC3=O)ncc2F)CC1 [GT-07595, 1-(4-((4-(4-((5-chloro-4-((2-(isopropylsulfonyl)phenyl)amino)pyrimidin-2-yl)amino)-5-isopropoxy-2-methylphenyl)piperidin-1-yl)methyl)-5-fluoropyridin-2-yl)dihydropyrimidine-2,4(1H,3H)-dione] | 500 to 1000 | A (A is defined as 0% ≤ substrate protein remaining % ≤ 80%) | 100 to 500 | – | –
COc1cc(N2CCN(Cc3ccc(N4CCC(=O)NC4=O)cn3)CC2)ccc1Nc1ncc(Cl)c(Nc2ccccc2P(C)(C)=O)n1 [GT-07349, 1-(6-((4-(4-((5-chloro-4-((2-(dimethylphosphoryl)phenyl)amino)pyrimidin-2-yl)amino)-3-methoxyphenyl)piperazin-1-yl)methyl)pyridin-3-yl)dihydropyrimidine-2,4(1H,3H)-dione] | 500 to 1000 | A (A is defined as 0% ≤ substrate protein remaining % ≤ 80%) | 50 to 100 | – | 500 to 1000
